The source of these data is patent US20250205249A1, “COMPOSITION FOR USE IN ENHANCING, BOOSTING, RESTORING AND/OR PREVENTING THE DECLINE OF COGNITIVE FUNCTIONS, ADJUVANT COMPOSITION, METHOD FOR USING THE COMPOSITION OR ADJUVANT COMPOSITION, AND KIT HAVING THE COMPOSITION OR ADJUVANT COMPOSITION” (Instytut Badawczy Innowacyjno Rozwojowy "Biotomed" Sp. Z O.O, priority 2023, published 2025).

Read-outs that look alike come from different tables or passages of the source. Marks after values point to notes of the source that are not given here. Some results are limits rather than exact numbers.

For data set [1], the system named is differentiated SH-SY5Y neuroblastoma cells. To be noted: XTT assay, tested 1-30 μM. (In general: Tetrazolium assays rely on reduction of a dye to a coloured formazan, in cell work by metabolically active cells.)
Excerpt: (§1) Human neuroblastoma cells of the SH-SY5Y lineage were chosen to perform the experiment.
For data set [2], the system named is differentiated SH-SY5Y cells. Briefly: Neuroprotection against H2O2, preincubation variant. It counts as cell-based, human.
Excerpt: as §1
(§2) Based on the literature review and research work, hydrogen peroxide H2O2 was chosen as the neurotoxin.
In data set [3] the test system is differentiated neuroblastoma cells (SH-SY5Y). Briefly: Neuroprotection against H2O2, postincubation variant. It is filed as cell-based, human. To be noted: 1 h and 3 h H2O2 at EC50, then 24 h post-incubation.
Description: as §1
Two time variants of incubation with hydrogen peroxide in differentiated neuroblastoma culture, i.e. 1 h and 3 h, were used in post-incubation.
In data set [4] the test system is oxidative stress parameters (GSH, GSSG, G6PD, glutathione reductase, glutathione-S-transferase, GPO). Briefly: Glutathione content and antioxidant enzymes activities in brain hemispheres during Al-intoxication. It is filed as in vivo, Wistar rats. An excerpt: Influence of Betulin on Oxidative Stress Parameters in Rats with Alzheimer-Like Neurodegeneration
The subject of data set [5] is rats with Alzheimer-like neurodegeneration. Briefly: Beam walking test (motor coordination). The note with it: 5th day of testing, AlCl3 rats. It counts as in vivo, Wistar rats.
Description: (§3) The study was conducted on Wistar rats weighing 220-250 g. All animals were subjected to two weeks of observation prior to the experiment to exclude infection. Rats were housed in standard cages, 5 individuals in each. The animals stayed in a room with a temperature of 22±2° C., air humidity 60-70% and in natural lighting (12/12 in a day/night cycle).
(§4) The Alzheimer's disease model was induced by administering aluminum chloride AICl3 (200 mg/kg body weight, i.g.) to the animals for 120 days. […] Animals were assigned to groups: control group receiving saline (sham operation), group with AlCl3 without treatment and group with AlCl3 receiving betulin (100 mg/kg/day, i.g., within the last 50% of the days of the experiment) and betulin in the complex with cyclodextrin (100 mg/kg/day, i.g., in the last 50% of the days of the experiment). Betulin or betulin in a complex with cyclodextrin was administered orally with an intragastric probe in a 2% starch emulsion, reflecting the composition of the finished preparation given in the examples of use.
Data set [6] has as its system APLP2. To be noted: 100 mg/kg/day, i.g.
Description: as §3
(§5) The Alzheimer's disease model was induced by administering aluminum chloride AICl3 (200 mg/kg body weight, i.g.) to the animals for 120 days. […] Animals were assigned to groups: control group receiving saline (sham operation), group with AlCl3 without treatment and group with AlCl3 receiving betulin (100 mg/kg/day, i.g., within the last 50% of the days of the experiment) and betulin in the complex with cyclodextrin (100 mg/kg/day, i.g., in the last 50% of the days of the experiment).
(§6) On the last day of the experiment, the animals were anaesthetized. Brains were quickly collected and then divided into different areas. The entire procedure was carried out in a cold room (+4° C.) on ice, and the samples were frozen in liquid nitrogen and stored in an ultra-low temperature refrigerator for further analysis.
(§7) In order to measure rat brain damage caused by aluminum chloride, biochemical determinations were carried out on the collected brain tissue fragments.
In data set [7] the test system is Aβ1-42 protein. The note with it: 100 mg/kg/day, i.g.
Description: as §3, §5, §6, §7
Data set [8] relates to rats with Alzheimer-like neurodegeneration. To be noted: Morris water maze, 5th day of testing; AlCl3 rats.
Description: as §3, §4
The subject of data set [9] is TNFα. To be noted: 100 mg/kg/day, i.g.
Description: as §3, §5, §6, §7
Data set [10] relates to differentiated SH-SY5Y neuroblastoma cells. Briefly: Neuroprotection against H2O2, coincubation variant. It is filed as cell-based, human. The note with it: for Improvement in cell viability relative to the positive control: coincubation with H2O2; for Increase in viability relative to cells treated with hydrogen peroxide: 24 h co-incubation, H2O2 at EC50.
Excerpt: as §1, §2
For data set [11] the test system is unchanged. Briefly: Early apoptosis of H2O2-treated cells, coincubation variant. It counts as cell-based, human. The note with it: 24 h coincubation with H2O2. The protocol: A coincubation variant was used, i.e. simultaneous administration of betulin or a reference drug and H2O2. H2O2 concentrations were EC50 or EC80 (resulting in a 50% and 80% reduction in cell viability in viability assays). Betulin concentrations were 1 μM and 5 μM, while NAC concentrations were 0.1 mM and 1 mM. The coincubation time of the test substances with H2O2 was 24 h.

Data set [12] deals with renal tubular epithelium. The note with it: cited from earlier work.
The conditions of data set [13]: cited from earlier work; for Total daily oral dose may reach: as dietary supplement (HP-β-cyclodextrin: as oral pharmaceutical); for NOAEL (No Observed Adverse Effect Level): oral intake.
The mark [14] stands for this setting: brain hemispheres, Al-intoxication.
[15] abbreviates: rat hippocampal homogenate, AlCl3 model.

For `C=C(C)[C@@H]1CC[C@]2(CO)CC[C@]3(C)[C@H](CC[C@@H]4[C@@]5(C)CC[C@H](O)C(C)(C)[C@@H]5CC[C@]43C)[C@@H]12` [betulin], the “Concentration above which a cytotoxic effect is induced (viability below the 70% threshold)” value in [1] was more than 20 µM. Besides, in data set [2] (betulin 1, 2, 5 and 10 μM, toxin at EC50), the “Protective effect against H2O2 (in words)” value is “statistically significant protective effect”. In data set [2] (betulin 15 and 20 μM), the “Protective effect against H2O2 (in words)” value is “no protective effect”. Further, in data set [3], the “Protective effect after H2O2 treatment (in words)” value was “no increase in viability relative to the positive control”. In [4] (animals with induced AD), the “Effect on GSH, GR and GSTs activity (in words)” value was “significant increase in the activity of all enzymes”; the “Effect on GSSG, G6PD and GPO activity (in words)” value was “significant decrease in the activity of these enzymes”. Further, in data set [4] (setting [14]), the G6PD is 28.61 ± 1.62^b nmol NADPH/min/mg protein, the GPO was 33.63 ± 2.09^b umol GSH/min/mg protein, the GSH is on record as 26.09 ± 2.19^b nmol/mg protein and the GSSG is reported as 0.112 ± 0.002^b nmol/mg protein. Further, in [4] (setting [14]), the Glutathione reductase is recorded as 11.59 ± 1.39 nmol NADPH/min/mg protein and the Glutathione-S-transferase is recorded as 129.90 ± 10.45^b nmol CDNB/min/mg protein. Besides, in data set [5], the “Percent of successful trials” value is 100^b % and the “Time to reach the shelter” value is listed as 18.6 ± 3.6^ab seconds. Further, in data set [6], the “Effect on APLP2 concentration in hippocampal homogenates (in words)” value is “reduced the concentration of APLP2”. The APLP2 in data set [6] (rat brain hippocampus homogenate, AlCl3 model) is reported as 588.1 ± 36.4^ab pg/100 mg. In data set [7], the “Effect on β-amyloid concentration in hippocampal homogenates (in words)” value is given as “reduced the concentration of β-amyloid”. Moreover, the “Protein Aβ1-42” value in [7] (setting [15]) is on record as 83.25 ± 6.40^ab pg/100 mg. In [8], the “Time spent in a target quadrant” value is given as 26 ± 8^ab seconds and the “Time to reach the platform” value is recorded as 38 ± 7^b seconds. Also, in data set [9], the “Effect on TNFα concentration in hippocampal homogenates (in words)” value is listed as “reduced the concentration of TNFα”. Besides, the TNF-α in [9] (setting [15]) is given as 5.88 ± 0.39 ^b pg/mg. The “Improvement in cell viability relative to the positive control” value in data set [10] (betulin 1 μM) was determined as 27%. The “Improvement in cell viability relative to the positive control” value in data set [10] (betulin 5 μM) worked out at 18%. Besides, the “Percentage of apoptotic cells” value in [11] (betulin 1 μM) was 2.7%. The “Percentage of apoptotic cells” value in [11] (betulin 5 μM) was determined as 2.5%.

Regarding `OC[C@H]1O[C@@H]2O[C@H]3[C@H](O)[C@@H](O)[C@@H](O[C@H]4[C@H](O)[C@@H](O)[C@@H](O[C@H]5[C@H](O)[C@@H](O)[C@@H](O[C@H]6[C@H](O)[C@@H](O)[C@@H](O[C@H]7[C@H](O)[C@@H](O)[C@@H](O[C@H]8[C@H](O)[C@@H](O)[C@@H](O[C@H]9[C@H](O)[C@@H](O)[C@@H](O[C@H]1[C@H](O)[C@H]2O)O[C@@H]9CO)O[C@@H]8CO)O[C@@H]7CO)O[C@@H]6CO)O[C@@H]5CO)O[C@@H]4CO)O[C@@H]3CO` [γ-cyclodextrin], the “Dose showing only reversible vacuolation in the renal tubular epithelium” value in [12] (rats, high doses) is listed as more than 600 mg/kg. Moreover, in data set [13], the “Total daily oral dose may reach” value is listed as 10,000 mg/day and the “NOAEL (No Observed Adverse Effect Level)” value is on record as 100 mg/kg/day.

Take `CC(=O)N[C@@H](CS)C(=O)O` [NAC, N-acetyl-L-cysteine, reference compound]: the “Protective effect against H2O2 (in words)” value in [2] (24 h preincubation, NAC 2.5 mM to 0.01 mM, H2O2 at EC50) is on record as “statistically significant (####p<0.001) protective effect on cells (no decrease in viability)”. In addition, the “Protective effect after H2O2 treatment (in words)” value in [3] was “induced a protective effect in a NAC concentration-dependent manner”. For the same molecule, the figures for the “Increase in viability relative to cells treated with hydrogen peroxide” value in data set [10] (NAC 0.01 mM), in [10] (NAC 0.1 mM) and in data set [10] (NAC 1 mM) were 12%, 40% and 54%, respectively. Besides, the “Induction of early apoptosis (percentage of apoptotic cells)” value in data set [11] (NAC 0.1 mM) amounted to 12.2%; in data set [11] (NAC 1 mM), 12.0%.

RM-β-cyclodextrin: the “Renal toxicity after parenteral administration (in words)” value in [12] (parenteral administration) was “renal toxicity at relatively low doses”.

On to `OC[C@H]1O[C@@H]2O[C@H]3[C@H](O)[C@@H](O)[C@@H](O[C@H]4[C@H](O)[C@@H](O)[C@@H](O[C@H]5[C@H](O)[C@@H](O)[C@@H](O[C@H]6[C@H](O)[C@@H](O)[C@@H](O[C@H]7[C@H](O)[C@@H](O)[C@@H](O[C@H]1[C@H](O)[C@H]2O)O[C@@H]7CO)O[C@@H]6CO)O[C@@H]5CO)O[C@@H]4CO)O[C@@H]3CO` [α-cyclodextrin], for which the “Renal toxicity after parenteral administration (in words)” value in [12] (rat, in vivo) is given as “renal toxicity at relatively low doses”. Besides, the “Total daily oral dose may reach” value in data set [13] is 6000 mg/day.

With `OC[C@H]1O[C@@H]2O[C@H]3[C@H](O)[C@@H](O)[C@@H](O[C@H]4[C@H](O)[C@@H](O)[C@@H](O[C@H]5[C@H](O)[C@@H](O)[C@@H](O[C@H]6[C@H](O)[C@@H](O)[C@@H](O[C@H]7[C@H](O)[C@@H](O)[C@@H](O[C@H]8[C@H](O)[C@@H](O)[C@@H](O[C@H]1[C@H](O)[C@H]2O)O[C@@H]8CO)O[C@@H]7CO)O[C@@H]6CO)O[C@@H]5CO)O[C@@H]4CO)O[C@@H]3CO` [β-cyclodextrin], in data set [13], the “Total daily oral dose may reach” value is 500 mg/day and the “NOAEL (No Observed Adverse Effect Level)” value is on record as 10 mg/kg/day.

Take HP-β-cyclodextrin: in [13], the “Total daily oral dose may reach” value was 8000 mg/day.
